Reference: ChEMBL document CHEMBL3272102, “Carboxyarylindoles as nonsteroidal antiinflammatory agents” (J Med Chem, 1976)

Experiments:
[1] = test system: Rattus norvegicus; experiment: Antiinflammatory activity in po dosed Wistar rat assessed as inhibition of carrageenan-induced paw edema administered 30 mins prior to 1%, sc carrageenan challenge measured after 3 hrs; assay type: functional
[2] = test system: Rattus norvegicus; experiment: Antiinflammatory activity in Wistar rat assessed as inhibition of carrageenan-induced paw edema at 200 mg/kg, po administered 30 mins prior to 1%, sc carrageenan challenge measured after 3 hrs; assay type: functional
[3] = test system: Rattus norvegicus; experiment: Toxicity in po dosed Wistar rat; assay type: organism-based; settings: in vivo
[4] = test system: Rattus norvegicus; experiment: Antiinflammatory activity in po dosed Wistar rat assessed as inhibition of carrageenan-induced paw edema administered 60 mins prior to 1%, sc carrageenan challenge measured after 3 hrs; assay type: functional
[5] = test system: Rattus norvegicus; experiment: Antiinflammatory activity in po dosed Wistar rat assessed as inhibition of carrageenan-induced paw edema administered 120 mins prior to 1%, sc carrageenan challenge measured after 3 hrs; assay type: functional

In the case of `O=C(O)c1cc(-n2c(-c3ccccc3)cc3c2CCCC3)ccc1O`, the ED50 [1] was 87 mg/kg and the inhibition in vivo at 200 mg/kg [2] was at least 60%.
`O=C(O)c1cccc(-n2c(-c3ccccc3)cc3c2CCCC3)c1` was tested, and the inhibition in vivo at 200 mg/kg [2] was 20%.
`O=C(O)c1ccc(-n2c(-c3ccccc3)cc3c2CCCC3)cc1O` gave an inhibition in vivo at 200 mg/kg [2] of 0%.
`CC(=O)Oc1ccc(-n2c(-c3ccccc3)cc3c2CCCC3)cc1C(=O)O` showed an inhibition in vivo at 200 mg/kg [2] of 50%.
With `COc1ccc(-n2c(-c3ccccc3)cc3c2CCCC3)cc1C(=O)O` the inhibition in vivo at 200 mg/kg [2] was 40%.
Work on `CC(=O)Nc1ccc(-n2c(-c3ccccc3)cc3c2CCCC3)cc1C(=O)O` yielded an inhibition in vivo at 200 mg/kg [2] of 30%.
`Nc1ccc(-n2c(-c3ccccc3)cc3c2CCCC3)cc1C(=O)O` gave an inhibition in vivo at 200 mg/kg [2] of 40%.
For `O=C(O)c1cc(-n2c(-c3ccccc3)cc3c2CCCC3)ccc1Cl`, the inhibition in vivo at 200 mg/kg [2] was 40%.
With `COC(=O)c1cc(-n2c(-c3ccccc3)cc3c2CCCC3)ccc1O` the inhibition in vivo at 200 mg/kg [2] was 0%.
`COC(=O)c1cc(-n2c(-c3ccccc3)cc3c2CCCC3)ccc1OC(=S)N(C)C` showed an inhibition in vivo at 200 mg/kg [2] of 0%.
Work on `COC(=O)c1cc(-n2c(-c3ccccc3)cc3c2CCCC3)ccc1SC(=O)N(C)C` yielded an inhibition in vivo at 200 mg/kg [2] of 0%.
With `O=C(O)c1cc(-n2c(-c3ccccc3)cc3c2CCCC3)ccc1S` the inhibition in vivo at 200 mg/kg [2] was 50%.
`CCNC(=O)c1cc(-n2c(-c3ccccc3)cc3c2CCc2ccccc2-3)ccc1O` showed an inhibition in vivo at 200 mg/kg [2] of 0%.
`O=C(O)c1cc(-n2c(-c3ccccc3)cc3c2CCCC3)c(C(F)(F)F)cc1O` was tested, and the inhibition in vivo at 200 mg/kg [2] was 0%.
`O=C(O)c1cc(-n2c(-c3ccccc3)cc3c2CCCC3)cc(Br)c1O` was tested, and the inhibition in vivo at 200 mg/kg [2] was 0%.
For `O=C(O)c1cc(-n2c(-c3ccccc3)cc3c2CCCC3)cc(Cl)c1O`, the inhibition in vivo at 200 mg/kg [2] was 0%.
`CC(=O)Nc1cc(-n2c(-c3ccccc3)cc3c2CCCC3)cc(C(=O)O)c1O` was tested, and the inhibition in vivo at 200 mg/kg [2] was 0%.
Molecule `COc1ccc(-c2cc3c(n2-c2ccc(O)c(C(=O)O)c2)CCCC3)cc1` has an ED50 [1] of 173 mg/kg and an inhibition in vivo at 200 mg/kg [2] of 50%.
`COc1cccc(-c2cc3c(n2-c2ccc(O)c(C(=O)O)c2)CCCC3)c1` was tested, and the inhibition in vivo at 200 mg/kg [2] was 20%.
With `COc1ccccc1-c1cc2c(n1-c1ccc(O)c(C(=O)O)c1)CCCC2` the inhibition in vivo at 200 mg/kg [2] was 50%.
Molecule `Cc1ccc(-c2cc3c(n2-c2ccc(O)c(C(=O)O)c2)CCCC3)cc1` has an inhibition in vivo at 200 mg/kg [2] of 30%.
For `O=C(O)c1cc(-n2c(-c3ccc(F)cc3)cc3c2CCCC3)ccc1O`, the ED50 [1] was 88 mg/kg and the inhibition in vivo at 200 mg/kg [2] was at least 60%.
Molecule `O=C(O)c1cc(-n2c(-c3ccc(Br)cc3)cc3c2CCCC3)ccc1O` has an inhibition in vivo at 200 mg/kg [2] of 40%.
`O=C(O)c1cc(-n2c(-c3ccc(Cl)cc3)cc3c2CCCC3)ccc1O` showed an inhibition in vivo at 200 mg/kg [2] of 40%.
In the case of `O=C(O)c1cc(-n2c(-c3ccc(Cl)c(Cl)c3)cc3c2CCCC3)ccc1O`, the inhibition in vivo at 200 mg/kg [2] was 0%.
Molecule `O=C(O)c1cc(-n2c(-c3ccc(O)cc3)cc3c2CCCC3)ccc1O` has an inhibition in vivo at 200 mg/kg [2] of 20%.
In the case of `O=C(O)c1cc(-n2c(-c3cccc(C(F)(F)F)c3)cc3c2CCCC3)ccc1O`, the inhibition in vivo at 200 mg/kg [2] was 20%.
With `N#Cc1ccc(-c2cc3c(n2-c2ccc(O)c(C(=O)O)c2)CCCC3)cc1` the inhibition in vivo at 200 mg/kg [2] was 0%.
`O=C(O)c1cc(-n2c(-c3ccc([N+](=O)[O-])cc3)cc3c2CCCC3)ccc1O` was tested, and the inhibition in vivo at 200 mg/kg [2] was 30%.
Work on `O=C(O)c1cc(-n2c(-c3cccs3)cc3c2CCCC3)ccc1O` yielded an inhibition in vivo at 200 mg/kg [2] of 30%.
Molecule `O=C(O)c1cc(-n2c(-c3ccc(-c4ccccc4)cc3)cc3c2CCCC3)ccc1O` has an ED50 [1] of 162 mg/kg and an inhibition in vivo at 200 mg/kg [2] of 50%.
For `CC(C)(C)c1cc2c(n1-c1ccc(O)c(C(=O)O)c1)CCc1ccccc1-2`, the inhibition in vivo at 200 mg/kg [2] was 40%.
Molecule `O=C(O)c1cc(-n2c3c(c(-c4ccccc4)c2-c2ccccc2)CCCC3)ccc1O` has an inhibition in vivo at 200 mg/kg [2] of 30%.
In the case of `CC(=O)c1c2c(n(-c3ccc(O)c(C(=O)O)c3)c1-c1ccccc1)CCc1ccccc1-2`, the inhibition in vivo at 200 mg/kg [2] was 0%.
With `O=C(O)c1cc(-n2c(-c3ccccc3)cc3c2CCC3)ccc1O` the Activity [3] was “Toxic” and the inhibition in vivo at 200 mg/kg [2] was 40%.
In the case of `O=C(O)c1cc(-n2c(-c3ccccc3)cc3c2CCCCC3)ccc1O`, the Activity [3] was “Toxic” and the inhibition in vivo at 200 mg/kg [2] was 50%.
`O=C(O)c1cc(-n2c(-c3ccccc3)cc3c2CCCC3=O)ccc1O` gave an inhibition in vivo at 200 mg/kg [2] of 0%.
Work on `COC1CCc2c(cc(-c3ccccc3)n2-c2ccc(O)c(C(=O)O)c2)C1` (stereo not given) yielded an inhibition in vivo at 200 mg/kg [2] of 40%.
`CC1CCc2c(cc(-c3ccccc3)n2-c2ccc(O)c(C(=O)O)c2)C1` (stereo not given) showed an inhibition in vivo at 200 mg/kg [2] of 40%.
In the case of `CC(C)(C)C1CCc2c(cc(-c3ccccc3)n2-c2ccc(O)c(C(=O)O)c2)C1` (stereo not given), the inhibition in vivo at 200 mg/kg [2] was 0%.
`O=C(O)c1cc(-n2c(-c3ccccc3)cc3c2-c2ccccc2CC3)ccc1O` showed an inhibition in vivo at 200 mg/kg [2] of 0%.
`O=C(O)c1cc(-n2c(-c3ccccc3)cc3c2CCc2cc(Cl)ccc2-3)ccc1O` showed an inhibition in vivo at 200 mg/kg [2] of 50%.
Molecule `COc1ccc2c(c1)CCc1c-2cc(-c2ccccc2)n1-c1ccc(O)c(C(=O)O)c1` has an ED50 [4] of 164 mg/kg and an inhibition in vivo at 200 mg/kg [2] of 50%.
Molecule `O=C(O)c1cc(-n2c(-c3ccccc3)cc3c2Cc2ccccc2-3)ccc1O` has an inhibition in vivo at 200 mg/kg [2] of 30%.
In the case of `COC(=O)c1cc(-n2c(-c3ccccc3)cc3c2CCc2ccccc2-3)ccc1O`, the inhibition in vivo at 200 mg/kg [2] was 30%.
`CCOC(=O)c1cc(-n2c(-c3ccccc3)cc3c2CCc2ccccc2-3)ccc1O` showed an inhibition in vivo at 200 mg/kg [2] of 0%.
`CC(=O)Oc1ccc(-n2c(-c3ccccc3)cc3c2CCc2ccccc2-3)cc1C(=O)O` showed an ED50 [5] of 75 mg/kg and an inhibition in vivo at 200 mg/kg [2] of 50%.
`O=C(O)c1cc(-n2c(-c3ccccc3)cc3c4ccccc4ccc32)ccc1O` gave an ED50 [1] of 105 mg/kg, an ED50 [4] of 69 mg/kg and an inhibition in vivo at 200 mg/kg [2] of at least 60%.
`O=C(O)c1cc(-n2c(-c3ccccc3)cc3ccccc32)ccc1O` was tested, and the inhibition in vivo at 200 mg/kg [2] was at least 60%.
In the case of `CC(C)(C)c1ccc2c(c1)cc(-c1ccccc1)n2-c1ccc(O)c(C(=O)O)c1`, the inhibition in vivo at 200 mg/kg [2] was 0%.
For `CC(=O)Oc1ccccc1C(=O)O` [ASPIRIN], the ED50 [1] was 140 mg/kg and the inhibition in vivo at 200 mg/kg [2] was at least 60%.
In the case of `O=C(O)c1cc(-n2c(-c3ccccc3)cc3c2CCc2ccccc2-3)ccc1O` [FENDOSAL], the ED50 [1] was 125 mg/kg, the ED50 [5] was 66 mg/kg and the inhibition in vivo at 200 mg/kg [2] was at least 60%.
